# Key:
# cerebral focal stroke = assay: experimental stroke / cerebral ischemia models (Assays 2 and 3); format: in vivo, rats; details: general statement on "such experiments"; no data given
# Procedure: The methodology for testing the compound's effect in ameliorating ischemic cell damage after transient middle cerebral artery occlusion (Zhang, et al., Stroke 26, 1438-43, 1995) is given as one example.
# Male rats weighing approximately 300 grams are anesthetized with 3.5% halothane and maintained with 1.0% halothane in 70% N2O and 30% O2 with the use of a face mask. Rectal remperature is maintained at 37°C throughout the surgical procedure. The right femoral artery and vein are cannulated for measuring blood gases before inducing ischemia, monitoring blood pressure during the surgery and administering compound.
# Approximately 18 mm of 4-0 surgical nylon suture with a rounded tip is advanced from the external carotid artery into the lumen of the internal carotid artery until it blocks the origin of the middle cerebral artery (MCA). […] Infarct volume is measured blindly with the use of a Global Lab Image analysis program (Data Translation). The infarct area and the ipsilateral and contralateral hemispheric area are calculated in square millimeters by tracing the right and left hemispheres and the ischemic lesion on the computer screen. The volumes in cubic millimeters are determined by multiplying the area by the section interval thickness. Infarct volume is analyzed as a percentage of the whole hemisphere. […]
# 5-HT1C receptor = target: T1, 5-HT1C receptor (Homo sapiens, UniProt P28335); assay: pharmacological studies, 5-HT1C receptor activity; details: stated in words only
# T1 sequence (P28335 33-458): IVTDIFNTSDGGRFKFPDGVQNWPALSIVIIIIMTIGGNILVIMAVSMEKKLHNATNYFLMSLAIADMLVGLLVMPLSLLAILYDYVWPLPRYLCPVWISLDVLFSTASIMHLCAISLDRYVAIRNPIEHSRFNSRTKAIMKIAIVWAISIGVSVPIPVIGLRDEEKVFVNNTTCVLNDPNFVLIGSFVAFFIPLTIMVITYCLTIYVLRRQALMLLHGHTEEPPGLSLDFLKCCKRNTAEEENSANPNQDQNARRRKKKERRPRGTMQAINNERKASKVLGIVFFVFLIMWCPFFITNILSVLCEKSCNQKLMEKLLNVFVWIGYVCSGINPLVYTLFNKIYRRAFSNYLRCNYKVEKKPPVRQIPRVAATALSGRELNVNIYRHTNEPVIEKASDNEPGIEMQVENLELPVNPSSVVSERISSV
# [1] = test system: muscarinic cholinergic receptor; assay: pharmacological studies, muscarinic cholinergic receptor activity; details: stated in words only
structure (smiles),measurement,setting,value
"Cc1cc2c(s1)Nc1ccccc1N=C2N1CCN(C)CC1 [olanzapine, 2-methyl-4-(4-methyl-1-piperazinyl)-10H-thieno [2,3-b] [1,5] benzodiazepine]",effect in the treatment or inhibition of cerebral focal stroke,cerebral focal stroke,significant effect
same,active at the 5-HT1C receptor,5-HT1C receptor,active
same,muscarinic cholinergic receptor activity,[1],has muscarinic cholinergic receptor activity

# Reference: patent EP0872239A2 (ELI LILLY AND COMPANY, priority 1997, dated 1998)
